Where two headings read alike, the source gives them in different places.
Legend:
[1] = target: T1, extended human kinome (kinase-like proteins) (Homo sapiens, UniProt P54886); assay: Whole cell quantitative proteomics: extended kinome hits; conditions: Accession P54886
T1 sequence (P54886 1-795): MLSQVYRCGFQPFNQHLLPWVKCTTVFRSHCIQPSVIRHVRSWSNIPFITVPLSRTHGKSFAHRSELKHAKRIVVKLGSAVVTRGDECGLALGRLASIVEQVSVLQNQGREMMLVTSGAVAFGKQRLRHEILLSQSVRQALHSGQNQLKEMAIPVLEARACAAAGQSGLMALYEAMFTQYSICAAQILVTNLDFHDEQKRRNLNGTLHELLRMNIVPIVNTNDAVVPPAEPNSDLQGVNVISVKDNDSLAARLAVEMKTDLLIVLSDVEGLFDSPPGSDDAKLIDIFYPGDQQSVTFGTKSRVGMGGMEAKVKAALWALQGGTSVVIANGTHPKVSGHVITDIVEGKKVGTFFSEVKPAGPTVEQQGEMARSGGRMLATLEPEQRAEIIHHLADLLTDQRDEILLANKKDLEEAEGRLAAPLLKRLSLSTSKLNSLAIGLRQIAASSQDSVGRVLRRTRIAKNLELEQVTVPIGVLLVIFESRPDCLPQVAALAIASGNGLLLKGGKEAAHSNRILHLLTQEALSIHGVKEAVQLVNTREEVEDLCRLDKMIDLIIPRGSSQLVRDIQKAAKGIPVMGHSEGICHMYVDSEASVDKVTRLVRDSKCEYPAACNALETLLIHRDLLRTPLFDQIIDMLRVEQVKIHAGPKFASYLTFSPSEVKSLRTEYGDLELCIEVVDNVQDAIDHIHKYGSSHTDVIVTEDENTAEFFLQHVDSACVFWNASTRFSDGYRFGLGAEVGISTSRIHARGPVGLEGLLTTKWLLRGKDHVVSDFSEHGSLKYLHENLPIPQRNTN
Procedure: Whole cell multiplexed quantitative proteomics was employed to measure changes in abundance of the proteome in response to treatment with each of the kinase degrader molecules relative to DMSO (Table 1, Appendix I).
Cells were treated with DMSO (biological triplicate) or degrader at indicated dose and time and cells were harvested by centrifugation. […] Precipitated protein was resuspended in 4 M Urea, 50 mM HEPES pH 7.4, followed by dilution to 1 M urea with the addition of 200 mM EPPS, pH 8. Proteins were first digested with LysC (1:50: enzyme:protein) for 12 hours at room temperature. The LysC digestion was diluted to 0.5 M Urea with 200 mM EPPS pH 8 followed by digestion with trypsin (1:50; enzyme:protein) for 6 hours at 37° C. Tandem mass tag (TMT) reagents (Thermo Fisher Scientific) were dissolved in anhydrous acetonitrile (ACN) according to manufacturer's instructions. […] The 10, 11, or 16-plex labeling reactions were performed for 1.5 hours at room temperature and the reaction quenched by the addition of hydroxylamine to a final concentration of 0.3% for 15 minutes at room temperature. The sample channels were combined at a 1:1 ratio, desalted using C18 solid phase extraction cartridges (Waters®) and analyzed by LC-MS for channel ratio comparison. Samples were then combined using the adjusted volumes determined in the channel ratio analysis and dried down in a speed vacuum. The combined sample was then resuspended in 1% formic acid, and acidified (pH 2-3) before being subjected to desalting with C18 SPE (Sep-Pak®, Waters®). Samples were then offline fractionated into 96 fractions by high pH reverse-phase HPLC (Agilent® LC1260) through an aeris peptide xb-c18 column (Phenomenex®) with mobile phase A containing 5% acetonitrile and 10 mM NH4HCO3 in LC-MS grade H2O, and mobile phase B containing 90% acetonitrile and 10 mM NH4HCO3 in LC-MS grade H2O (both pH 8.0). The 96 resulting fractions were then pooled in a non-continuous manner into 24 fractions and desalted using C18 solid phase extraction plates (SOLA®, Thermo Fisher Scientific) followed by subsequent mass spectrometry analysis.
Data were collected using an Orbitrap Fusion™ Lumos™ mass spectrometer (Thermo Fisher Scientific, San Jose, CA, USA) coupled with a Proxeon EASY-nLC™ 1200 LC pump (Thermo Fisher Scientific) or an Orbitrap Eclipse™ Tribrid™ mass spectrometer (Thermo Fisher Scientific, San Jose, CA, USA) coupled with an UltiMate™ 3000 RSLCnano System. Peptides were separated on an EasySpray™ ES803a/ES803a.rev2 75 μm inner diameter microcapillary column (ThermoFisher Scientific).
Data dependent MS2 spectra were acquired in the ion trap with a normalized collision energy (NCE) set at 35%, AGC target set to 1.8×10^4 and a maximum injection time of 120 ms. MS3 scans were acquired in the Orbitrap with HCD collision energy set to 55%. AGC target set to 2×10^5, maximum injection time of 150 ms, resolution at 50,000 and with a maximum synchronous precursor selection (SPS) precursors set to 10.
Proteome Discoverer™ 2.1, 2.2 or 2.4 (Thermo Fisher Scientific) was used for .RAW file processing and controlling peptide and protein level false discovery rates, assembling proteins from peptides, and protein quantification from peptides.

[2] = target: T2, protein kinases (human kinome) (Homo sapiens, UniProt Q9NYY8); assay type: cell-based; conditions: direction down
T2 sequence (Q9NYY8 1-710): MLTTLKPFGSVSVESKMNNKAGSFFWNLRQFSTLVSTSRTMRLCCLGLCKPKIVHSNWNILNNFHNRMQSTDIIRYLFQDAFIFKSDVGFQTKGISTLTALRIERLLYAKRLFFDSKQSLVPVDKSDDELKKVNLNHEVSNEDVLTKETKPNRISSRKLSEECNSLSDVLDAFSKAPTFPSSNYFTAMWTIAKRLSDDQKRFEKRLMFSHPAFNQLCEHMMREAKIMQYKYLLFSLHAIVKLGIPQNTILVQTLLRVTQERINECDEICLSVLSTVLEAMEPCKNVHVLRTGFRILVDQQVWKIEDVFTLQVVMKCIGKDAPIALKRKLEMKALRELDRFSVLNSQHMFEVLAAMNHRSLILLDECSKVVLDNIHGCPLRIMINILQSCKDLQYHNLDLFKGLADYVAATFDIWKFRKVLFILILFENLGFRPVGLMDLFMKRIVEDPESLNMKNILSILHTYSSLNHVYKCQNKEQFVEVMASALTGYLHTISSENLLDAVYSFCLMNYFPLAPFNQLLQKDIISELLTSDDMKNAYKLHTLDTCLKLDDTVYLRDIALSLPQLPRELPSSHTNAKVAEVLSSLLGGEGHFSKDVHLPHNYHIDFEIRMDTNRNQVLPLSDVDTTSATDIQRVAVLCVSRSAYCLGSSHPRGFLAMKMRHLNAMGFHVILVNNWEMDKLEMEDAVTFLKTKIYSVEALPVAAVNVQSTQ

[3] = target: protein kinases (human kinome) (Homo sapiens, UniProt P30291); assay type: cell-based; conditions: for logFC of WEE1: WEE1 P30291-1
protein kinases (human kinome) (Homo sapiens, UniProt P30291), sequence (P30291 whole entry): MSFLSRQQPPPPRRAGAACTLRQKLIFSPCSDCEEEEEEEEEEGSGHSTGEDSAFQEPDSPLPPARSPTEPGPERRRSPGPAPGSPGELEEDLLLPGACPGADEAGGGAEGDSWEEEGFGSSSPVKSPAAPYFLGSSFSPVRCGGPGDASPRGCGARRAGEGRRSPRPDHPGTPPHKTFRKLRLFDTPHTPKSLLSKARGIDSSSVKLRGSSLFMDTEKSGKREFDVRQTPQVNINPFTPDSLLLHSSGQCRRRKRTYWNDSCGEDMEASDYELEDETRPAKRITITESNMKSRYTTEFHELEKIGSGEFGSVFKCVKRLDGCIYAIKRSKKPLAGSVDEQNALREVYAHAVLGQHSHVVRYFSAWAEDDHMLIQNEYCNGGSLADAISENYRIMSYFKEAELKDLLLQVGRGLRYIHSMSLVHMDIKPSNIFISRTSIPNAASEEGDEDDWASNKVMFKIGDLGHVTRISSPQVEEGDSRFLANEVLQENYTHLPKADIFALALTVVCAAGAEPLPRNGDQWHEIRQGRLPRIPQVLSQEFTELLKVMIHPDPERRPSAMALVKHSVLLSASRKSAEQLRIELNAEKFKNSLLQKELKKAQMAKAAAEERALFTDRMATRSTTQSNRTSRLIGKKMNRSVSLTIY

[4] = system: protein kinases (human kinome); assay type: cell-based; conditions: for logFC PDK3: PDK3 (Q15120-2); for logFC ABL1: ABL1 (P00519-2); for logFC of SRC: Accession P12931-2; for logFC LCK: accession P06239-3
[5] = target: protein kinases (human kinome) (Homo sapiens, UniProt P51451); assay type: cell-based; conditions: for logFC BLK: BLK (P51451), direction down; for logFC of BLK (P51451): down
protein kinases (human kinome) (Homo sapiens, UniProt P51451), sequence (P51451 whole entry): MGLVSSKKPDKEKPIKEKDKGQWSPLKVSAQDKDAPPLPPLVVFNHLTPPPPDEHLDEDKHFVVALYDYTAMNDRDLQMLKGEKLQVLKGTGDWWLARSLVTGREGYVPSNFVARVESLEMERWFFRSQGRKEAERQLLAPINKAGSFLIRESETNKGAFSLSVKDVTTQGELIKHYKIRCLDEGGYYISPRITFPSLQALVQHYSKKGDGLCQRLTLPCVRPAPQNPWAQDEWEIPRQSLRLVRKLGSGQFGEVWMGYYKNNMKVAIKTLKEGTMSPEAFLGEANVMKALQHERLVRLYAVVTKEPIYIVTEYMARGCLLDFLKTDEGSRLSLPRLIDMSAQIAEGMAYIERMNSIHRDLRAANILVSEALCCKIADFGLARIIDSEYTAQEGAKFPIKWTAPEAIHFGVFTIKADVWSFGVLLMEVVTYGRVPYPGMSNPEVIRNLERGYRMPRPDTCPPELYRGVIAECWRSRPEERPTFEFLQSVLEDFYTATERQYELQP

[6] = experiment wp056, direction of change down
[7] = experiment wp103, direction of change down
[8] = experiment wp107, direction of change down

CC(=O)c1c(C)c2cnc(Nc3ccc(N4CCN(CCOCCOCCOCCNC(=O)COc5cccc6c5C(=O)N(C5CCC(=O)NC5=O)C6=O)CC4)cn3)nc2n(C2CCCC2)c1=O (centres unmarked) [BSJ.03.123]
logFC ALDH18A1 ([1]; experiment wp084): −0.5282 | logFC FASTKD2 (Q9NYY8) ([2]; Experiment wp084): −0.51 | logFC of WEE1 ([3]; experiment wp084): −0.3883 | logFC WEE1 (P30291-1) ([3]; experiment wp084): −0.3883 | logFC ([4]; ACAD10 (Q6JQN1-5), experiment wp084): −0.5275 | logFC ([4]; GK P32189-3, experiment wp084): −0.4109 | logFC PDK3 ([4]; experiment wp084): −0.5908 | logFC PDK3 (Q15120-2) ([4]; experiment wp084): −0.5908 | logFC HK1 ([4]; protein HK1 (P19367-3), experiment wp084, down): −0.3484

C=CCn1c(=O)c2cnc(Nc3ccc(N4CCN(CCCNc5cccc6c5C(=O)N(C5CCC(=O)NC5=O)C6=O)CC4)cc3)nc2n1-c1cccc(C(C)(C)O)n1 (centres unmarked) [ZNL.02.096]
logFC ALDH18A1 ([1]; experiment wp118): −0.4405 | logFC FASTKD2 (Q9NYY8) ([2]; Experiment wp118): −0.4605 | logFC of WEE1 ([3]; experiment wp081): −1.97 | logFC of WEE1 ([3]; experiment wp106, 2 hr): −2.525 | logFC of WEE1 ([3]; experiment wp106, 4 hr): −2.764 | logFC of WEE1 ([3]; experiment wp118): −2.75 | logFC WEE1 (P30291-1) ([3]; experiment wp056): −2.409 | logFC WEE1 (P30291-1) ([3]; experiment wp081): −1.97 | logFC WEE1 (P30291-1) ([3]; experiment wp106, 2 hr): −2.525 | logFC WEE1 (P30291-1) ([3]; experiment wp106, 4 hr): −2.764 | logFC WEE1 (P30291-1) ([3]; experiment wp118): −2.75 | logFC ([4]; GK P32189-3, experiment wp056): −0.3867 | logFC PDK3 ([4]; experiment wp056): −0.3528 | logFC PDK3 (Q15120-2) ([4]; experiment wp056): −0.3528

Cc1ccc(C(=O)Nc2ccc(CN3CCN(CCCOCCOCCOCCNC(=O)COc4cccc5c4C(=O)N(C4CCC(=O)NC4=O)C5=O)CC3)c(C(F)(F)F)c2)cc1C#Cc1cnc2cccnn12 (centres unmarked) [SB1.G.187]
logFC ALDH18A1 ([1]; experiment wp056): −0.4458 | logFC BLK ([5]; experiment wp103): −2.098 | logFC BLK ([5]; experiment wp107): −1.916 | logFC of BLK ([5]; BLK P51451, experiment wp056): −2.021 | logFC of BLK (P51451) ([5]; Experiment wp056): −2.021 | logFC of BLK (P51451) ([5]; Experiment wp103): −2.098 | logFC of BLK (P51451) ([5]; Experiment wp107): −1.916 | logFC FASTKD2 (Q9NYY8) ([2]; Experiment wp056): −0.3881 | logFC ABL1 ([4]; experiment wp056): −0.5173 | logFC ABL1 ([4]; experiment wp103): −0.754 | logFC ABL1 ([4]; experiment wp107): −0.5339 | logFC FYN ([4]; Accession P06241-2, experiment wp107): −0.5334 | logFC of SRC ([4]; experiment wp056): −0.604 | logFC of SRC ([4]; experiment wp103): −0.8282 | logFC of SRC ([4]; experiment wp105): −0.5683 | logFC of SRC ([4]; experiment wp107): −1.206 | logFC MAP3K20 (Q9NYL2-2) ([4]; Experiment wp103): −0.6203 | logFC MAP3K20 (Q9NYL2-2) ([4]; Experiment wp107): −0.4387 | logFC MAP3K20 (Q9NYL2-2) ([4]; Experiment wp114): −0.7846 | logFC of LYN (P07948-2) ([4]; Experiment wp114): −0.4408 | logFC ([4]; FER (P16591-3), experiment wp172, direction down): −1.394 | logFC of FER ([4]; FER P16591-3, experiment wp172): −1.394 | logFC FYN ([4]; FYN P06241-2, experiment wp107): −0.5334 | logFC ([4]; GK P32189-3, experiment wp056): −0.4719 | logFC LCK [4, 6]: −1.003 | logFC LCK [4, 7]: −1.237 | logFC LCK [4, 8]: −1.237 | logFC ([4]; LYN (P07948-2), experiment wp105): −1.087 | logFC ([4]; LYN (P07948-2), experiment wp114): −0.4408 | logFC MAPK14 ([4]; MAPK14, accession Q16539-2, experiment wp056, direction of change down): −0.8019 | logFC MAPK14 ([4]; MAPK14, accession Q16539-2, experiment wp105, direction of change down): −0.9084 | logFC MAPK14 ([4]; MAPK14 Q16539-2, experiment wp056): −0.8019 | logFC MAPK14 ([4]; MAPK14 Q16539-2, experiment wp105): −0.9084 | logFC PDK3 ([4]; experiment wp056): −0.4827 | logFC ABL1 (P00519-2) ([4]; experiment wp056): −0.5173 | logFC PDK3 (Q15120-2) ([4]; experiment wp056): −0.4827 | logFC LCK (P06239-3) [4, 6]: −1.003 | logFC ABL1 (P00519-2) ([4]; experiment wp103): −0.754 | logFC MAP3K20 (Q9NYL2-2) ([4]; experiment wp103): −0.6203 | logFC LCK (P06239-3) [4, 7]: −1.237 | logFC of LYN (P07948-2) ([4]; experiment wp105): −1.087 | logFC ABL1 (P00519-2) ([4]; experiment wp107): −0.5339 | logFC MAP3K20 (Q9NYL2-2) ([4]; experiment wp107): −0.4387 | logFC LCK (P06239-3) [4, 8]: −1.237 | logFC MAP3K20 (Q9NYL2-2) ([4]; experiment wp114): −0.7846

CC(C)(C)c1nc(-c2cccc(NS(=O)(=O)c3c(F)cccc3F)c2F)c(-c2ccnc(NCCOCCNC(=O)CCOCCOCCNc3cccc4c3CN(C3CCC(=O)NC3=O)C4=O)n2)s1 (centres unmarked) [DD.03.107]
logFC ALDH18A1 ([1]; experiment wp147, 1 uM): −0.6536 | logFC ALDH18A1 ([1]; experiment wp147, 2 uM): −0.7374 | logFC ALDH18A1 ([1]; experiment wp147, 4 uM): −1.326 | logFC FASTKD2 (Q9NYY8) ([2]; Experiment wp147, 1 uM): −0.7236 | logFC FASTKD2 (Q9NYY8) ([2]; Experiment wp147, 2 uM): −0.6784 | logFC FASTKD2 (Q9NYY8) ([2]; Experiment wp147, 4 uM): −1.273 | logFC ([4]; ACAD10 (Q6JQN1-5), experiment wp147, 1 uM): −0.5536 | logFC ([4]; ACAD10 (Q6JQN1-5), experiment wp147, 2 uM): −0.5234 | logFC ([4]; ACAD10 (Q6JQN1-5), experiment wp147, 4 uM): −1.061 | logFC ([4]; GK P32189-3, experiment wp147, 1 uM): −0.4979 | logFC ([4]; GK P32189-3, experiment wp147, 2 uM): −0.4324 | logFC ([4]; GK P32189-3, experiment wp147, 4 uM): −0.7592 | logFC PDK3 ([4]; experiment wp147, 1 uM): −0.5119 | logFC PDK3 ([4]; experiment wp147, 2 uM): −0.5406 | logFC PDK3 ([4]; experiment wp147, 4 uM): −1.004 | logFC PDK3 (Q15120-2) ([4]; experiment wp147, 1 uM): −0.5119 | logFC PDK3 (Q15120-2) ([4]; experiment wp147, 2 uM): −0.5406 | logFC PDK3 (Q15120-2) ([4]; experiment wp147, 4 uM): −1.004
